Measured values: patent US20250099482A1, “TIP60 NEURO-EPIGENETIC MODULATORS” (Drexel University, priority 2023, published 2025)
Entries after “also recorded” stand apart in the source; their conditions may differ.

Columns and labels:
[1] = system: Drosophila Alzheimer's disease model (APP); test: Eclosion assay (lethality) in APP Alzheimer's disease model; format: in vivo; details: compound in fly food
Description: All fly lines were raised on standard yeast Drosophila medium (Applied Scientific Jazz Mix Drosophila Food, Thermo Fischer Scientific) at 25° C. with 12/12-h light/dark cycle. The pan-neuronal driver elav^C155-Gal4, transgenic Tip60-RNAi-mediated knock-down (UAS-Tip60 RNAi) and the transgenic UAS lines carrying human APP 695 isoform (UAS-APP) were obtained from Bloomington Drosophila Stock Center. For neural Tip60 knockdown and APP expression, the elav^C155-Gal4 driver line was crossed with UAS-Tip60RNAi or UAS-APP and the progeny was collected as Tip60 knockdown model (elav^C155-Gal4/UAS-Tip60 RNAi) or APP associated AD model (elav^C155-Gal4/UAS-APP). For wild-type control, the elav^C155-Gal4 driver line was crossed with itself. Model validation was performed by confirming reduced Tip60 mRNA levels in Tip60 RNAi model as compared to wildtype using real-time PCR.
Compounds were synthesized by Enamine, Princeton Molecular and ChemBridge. […]
The P10 and P13 compound's functional effectiveness in rescuing AD associated lethality that occurs as a culmination of later stage neurodgenerative progression was assessed using an eclosion assay (FIG. 9C). Briefly, larvae were reared on food either with compounds dissolved in DMSO or without compounds (DMSO vehicle) and the number of flies that eclosed from their pupal cases over a 7 day period were counted.

purified p300 HAT = purified p300 HAT (Homo sapiens, UniProt Q09472); test: In vitro histone acetylation activity assay (p300); format: biochemical; details: HAT assays, 20 μM
Sequence of purified p300 HAT (Q09472 whole entry, species assumed): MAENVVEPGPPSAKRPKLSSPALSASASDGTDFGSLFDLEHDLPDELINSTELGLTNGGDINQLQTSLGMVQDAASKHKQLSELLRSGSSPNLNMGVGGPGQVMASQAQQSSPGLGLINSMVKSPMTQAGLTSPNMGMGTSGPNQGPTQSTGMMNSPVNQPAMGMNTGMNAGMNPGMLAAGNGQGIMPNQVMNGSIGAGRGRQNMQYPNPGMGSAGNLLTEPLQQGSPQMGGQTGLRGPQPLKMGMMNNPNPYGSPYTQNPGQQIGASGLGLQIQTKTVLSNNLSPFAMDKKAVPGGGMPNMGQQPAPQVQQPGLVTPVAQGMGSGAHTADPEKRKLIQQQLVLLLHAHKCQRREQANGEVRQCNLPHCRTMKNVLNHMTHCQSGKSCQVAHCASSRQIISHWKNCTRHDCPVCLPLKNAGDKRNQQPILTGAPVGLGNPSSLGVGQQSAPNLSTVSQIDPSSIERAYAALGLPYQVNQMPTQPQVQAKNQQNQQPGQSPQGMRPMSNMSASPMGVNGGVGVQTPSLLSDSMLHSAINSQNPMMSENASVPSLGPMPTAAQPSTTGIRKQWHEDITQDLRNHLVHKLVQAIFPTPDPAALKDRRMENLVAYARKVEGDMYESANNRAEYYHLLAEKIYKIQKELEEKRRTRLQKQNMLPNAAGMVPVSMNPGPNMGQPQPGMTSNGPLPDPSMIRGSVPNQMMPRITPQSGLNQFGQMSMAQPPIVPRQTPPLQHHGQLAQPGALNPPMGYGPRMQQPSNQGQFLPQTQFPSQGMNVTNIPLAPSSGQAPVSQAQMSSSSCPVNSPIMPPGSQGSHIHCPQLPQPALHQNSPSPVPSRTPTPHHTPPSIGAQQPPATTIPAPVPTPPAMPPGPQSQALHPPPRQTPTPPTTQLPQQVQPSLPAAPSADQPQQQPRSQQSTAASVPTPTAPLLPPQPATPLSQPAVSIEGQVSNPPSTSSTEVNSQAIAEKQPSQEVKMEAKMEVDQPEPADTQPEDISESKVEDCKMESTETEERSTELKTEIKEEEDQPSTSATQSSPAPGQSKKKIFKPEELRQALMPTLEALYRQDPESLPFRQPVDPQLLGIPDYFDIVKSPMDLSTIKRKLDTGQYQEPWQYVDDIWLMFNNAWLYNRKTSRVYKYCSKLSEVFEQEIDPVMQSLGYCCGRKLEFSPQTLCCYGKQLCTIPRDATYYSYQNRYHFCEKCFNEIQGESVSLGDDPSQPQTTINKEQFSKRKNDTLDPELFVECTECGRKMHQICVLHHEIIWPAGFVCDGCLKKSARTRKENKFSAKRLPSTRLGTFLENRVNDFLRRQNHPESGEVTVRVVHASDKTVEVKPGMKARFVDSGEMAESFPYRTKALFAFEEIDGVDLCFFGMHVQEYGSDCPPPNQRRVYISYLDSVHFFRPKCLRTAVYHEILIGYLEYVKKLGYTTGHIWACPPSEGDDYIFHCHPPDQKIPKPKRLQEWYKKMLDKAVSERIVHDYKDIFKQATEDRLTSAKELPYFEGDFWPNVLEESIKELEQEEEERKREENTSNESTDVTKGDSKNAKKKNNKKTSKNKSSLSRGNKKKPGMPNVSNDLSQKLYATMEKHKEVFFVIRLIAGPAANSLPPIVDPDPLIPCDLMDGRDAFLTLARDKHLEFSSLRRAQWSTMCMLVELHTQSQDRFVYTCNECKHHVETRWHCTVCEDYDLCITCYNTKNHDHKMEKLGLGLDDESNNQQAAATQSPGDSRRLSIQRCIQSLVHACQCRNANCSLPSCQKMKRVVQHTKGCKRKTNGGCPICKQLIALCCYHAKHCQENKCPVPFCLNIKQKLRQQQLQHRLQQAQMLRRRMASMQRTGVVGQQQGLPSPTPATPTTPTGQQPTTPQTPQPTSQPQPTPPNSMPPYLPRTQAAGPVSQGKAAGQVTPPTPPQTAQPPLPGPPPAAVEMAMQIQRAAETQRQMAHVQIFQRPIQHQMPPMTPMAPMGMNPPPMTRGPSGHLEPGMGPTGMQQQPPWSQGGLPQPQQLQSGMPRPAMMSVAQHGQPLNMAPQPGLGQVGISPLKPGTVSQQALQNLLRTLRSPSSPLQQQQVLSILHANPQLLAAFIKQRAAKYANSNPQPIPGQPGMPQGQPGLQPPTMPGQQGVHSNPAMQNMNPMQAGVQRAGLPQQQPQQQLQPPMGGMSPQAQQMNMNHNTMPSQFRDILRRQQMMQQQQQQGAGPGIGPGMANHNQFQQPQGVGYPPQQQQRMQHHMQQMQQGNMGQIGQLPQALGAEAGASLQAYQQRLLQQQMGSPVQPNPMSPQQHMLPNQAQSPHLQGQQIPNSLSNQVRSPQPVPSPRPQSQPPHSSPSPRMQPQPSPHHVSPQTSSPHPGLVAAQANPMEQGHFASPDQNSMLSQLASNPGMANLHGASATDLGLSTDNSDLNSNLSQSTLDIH

Tip60 = target: T1, Tip60 (Homo sapiens, UniProt Q92993); test: In vitro histone acetylation activity assay (Tip60); format: biochemical; details: 20 μM compound, vs Tip60+DMSO
T1 construct: purchased Active Motif 81975
T1 sequence (Q92993 whole entry): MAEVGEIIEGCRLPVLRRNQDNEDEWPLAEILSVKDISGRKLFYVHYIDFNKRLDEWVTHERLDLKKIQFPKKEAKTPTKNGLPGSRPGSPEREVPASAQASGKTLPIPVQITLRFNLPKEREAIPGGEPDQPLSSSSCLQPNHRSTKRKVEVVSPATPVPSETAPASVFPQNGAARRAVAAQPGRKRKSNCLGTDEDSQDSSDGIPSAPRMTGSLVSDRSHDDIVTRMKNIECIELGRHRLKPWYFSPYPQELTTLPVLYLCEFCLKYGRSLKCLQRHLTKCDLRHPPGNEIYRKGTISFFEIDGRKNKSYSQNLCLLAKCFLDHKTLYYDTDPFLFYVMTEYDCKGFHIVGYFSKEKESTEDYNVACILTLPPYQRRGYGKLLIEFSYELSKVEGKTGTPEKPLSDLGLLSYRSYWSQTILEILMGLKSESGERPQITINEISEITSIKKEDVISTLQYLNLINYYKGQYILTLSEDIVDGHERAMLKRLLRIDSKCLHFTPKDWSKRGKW
Description: HAT assays were performed according to manufacturer's instructions in HAT Assay Kit (Active Motif 56100). Briefly, 375 ng Tip60 protein (Active motif: 81975) was incubated with 50 μM Histone H4 peptide, 50 μM Acetyl-CoA and indicated drug concentrations for 30 minutes at room temperature. After stopping the reaction and developing free sulfhydryl groups, […] was recorded at excitation 360-390 nm and emission 460-490 nm using Glomax fluorescence microplate reader. Specific enzyme activity (pmol/min/μg) was calculated by 1. Subtracting background fluorescence from that of assay samples to obtain arbitrary fluorescence units (AFU); and (2) Dividing the difference by the incubation time to obtain AFU/minute. 3. Dividing the AFU/minute by the slope of standard curve in AFU/pmol to obtain the rate in pmol/minute. 4. Dividing pmol/min by the amount of enzyme used to obtain final readings in pmol/minute/μg.

[2] = system: Drosophila Alzheimer's disease model (APP); test: Larval line crossing assay in APP Alzheimer's disease model; format: in vivo; details: 3rd instar APP larvae, compound in fly food, range of concentrations
[3] = system: Drosophila Tip60 knockdown model; test: Larval line crossing / reaching the wall assay in Tip60-RNAi knockdown model; format: in vivo; details: for rescue of Tip60 knockdown induced locomotion deficits (line crossing in 30 seconds): 3rd instar Tip60-RNAi larvae, compound in fly food

Row | SMILES | rescue of AD associated lethality (flies eclosed over 7 day period) [1] | specificity for Tip60 over p300 (purified p300 HAT) | effect on Tip60's HAT activity (Histone H4 acetylation, fluorescence) (Tip60) | rescue of AD associated locomotion defects (line crossing, reaching wall) [2] | rescue of Tip60 knockdown induced locomotion deficits (line crossing in 30 seconds) [3] | ability of larvae to cross plate and reach the wall ([3]; 1 μM drug concentration) | restoration of locomotor activity (line crossing) ([3]; 1 μM drug concentration)
1 | Cc1nc2c(cnn2C(C)C)cc1C(=O)NCc1ccc([C@H](C)O)c(C)n1 [Compound P10, (S)-N-((5-(1-hydroxyethyl)-6-methylpyridin-2-yl)methyl)-1-isopropyl-6-methyl-1H-pyrazolo[3,4-b]pyridine-5-carboxamide] | significant rescue of lethality | highest specificity for Tip60 over p300 | enhanced Tip60's HAT activity; also recorded: highest level of Tip60 HAT activation | consistent and robust rescue | rescue locomotor speed defect |  | 
2 | CC(=O)Nc1cccc(CNC(=O)c2cnc3ccccc3c2C(F)(F)F)c1 [Compound P13, N-(3-acetamidobenzyl)-4-(trifluoromethyl)quinoline-3-carboxamide] | significant rescue of lethality; also recorded: more robust effects | highest specificity for Tip60 over p300 | enhanced Tip60's HAT activity; also recorded: highest level of Tip60 HAT activation | consistent and robust rescue | rescue locomotor speed defect | improved the performance of larvae in reaching the wall | best performer in restoring locomotor activity to wild-type levels
